≈ marks a conversion by molar mass, not a printed value.
Key:
E. coli (2) = assay: Susceptibility testing (MIC, CLSI microdilution); format: cell-based, Escherichia coli; conditions: 20 h at 35° C., in µg/mL (unit assumed)
Method: (§1) Compounds were tested following the microdilution method of CLSI (Clinical and Laboratory Standards Institute. Methods for dilution antimicrobial susceptibility tests for bacteria that grow aerobically; Approved standard—sixth edition. CLSI document M7-A5, CLSI, Wayne, Pa. 2003). Assays were performed in sterile plastic 96-well microtiter trays with round bottom wells (Greiner).
(§2) Stock solutions of test compounds and control antibiotics were prepared at 10 mg/ml in DMSO. Serial 2-fold dilutions of each drug were performed in a microtiter plate across each row using DMSO as solvent at 100-fold the desired final concentration. Wells in columns #1-11 contain drug and column #12 was kept as a growth control for the organism with no drug. Each well in the mother plate was diluted with sterile deionized water and DMSO, mixed, and volumes of 10 μl distributed to each well in the resulting assay plates.
(§3) Stock cultures were prepared using the Microbank™ method (Pro-Lab Diagnostics) and stored at −80° C. To propagate each strain, one bead was removed from the frozen vial and aseptically streaked onto Trypticase Soy Agar (Difco) which were incubated at 35° C. Standardized inocula were prepared using the direct colony suspension method according to CLSI guidelines (Clinical and Laboratory Standards Institute. Methods for dilution antimicrobial susceptibility tests for bacteria that grow aerobically; Approved standard—sixth edition. CLSI document M7-A5, CLSI, Wayne, Pa., 2003). Isolated colonies were selected from an 18-24 hr agar plate and resuspended in 0.9% sterile saline to match a 0.5 McFarland turbidity standard using a calorimeter (Vitek) at 80% of transmitance. The suspension was used within 15 minutes of preparation.
(§4) Mueller-Hinton Broth (MHB) (Difco) was prepared at a 1.1× concentration and supplemented with Ca++ and Mg++ as recommended by CLSI. For each organism, the standardized suspension was diluted 1:180 into appropriate growth medium in a sterile reservoir. After mixing, wells in the drug-containing assay plates were inoculated with a volume of 90 μl. Thus, for each minimum inhibitory concentration (MIC) determination, each well contains a final volume of 100 μl with an inoculum size of approximately 5×10^5 colony forming units (cfu)/ml and no more than 1% DMSO.
(§5) The completed microtiter plates were incubated 20 h at 35° C. in ambient air. Optical density of each well was determined at 600 nm using a VersaMax Microplate reader (Molecular Devices, Sunnyvale, Calif.). The MIC was defined as the lowest drug concentration causing complete suppression of visible bacterial growth.

E. coli tolC = assay: Susceptibility testing (MIC, CLSI microdilution); format: cell-based, Escherichia coli; conditions: 20 h at 35° C., unit assumed
Method: as §1, §2, §3, §4, §5

P. aerug. (2) = assay: Susceptibility testing (MIC, CLSI microdilution); format: cell-based, Pseudomonas aeruginosa; conditions: 20 h at 35° C., in µg/mL (unit assumed)
Method: as §1, §2, §3, §4, §5

P. aerug. Hypersuc = assay: Susceptibility testing (MIC, CLSI microdilution); format: cell-based, Pseudomonas aeruginosa; conditions: 20 h at 35° C., Δ efflux, hypersusceptible strain, unit assumed
Method: as §1, §2, §3, §4, §5

K. pneu. = assay: Susceptibility testing (MIC, CLSI microdilution); format: cell-based, Klebsiella pneumoniae; conditions: 20 h at 35° C., unit assumed
Method: as §1, §2, §3, §4, §5

H. influen. = assay: Susceptibility testing (MIC, CLSI microdilution); format: cell-based, Haemophilus influenzae; conditions: 20 h at 35° C., unit assumed
Method: as §1, §2, §3, §4, §5

P. ae LpxC enzyme = P. ae LpxC enzyme (Pseudomonas aeruginosa, UniProt P47205); assay: Enzyme inhibition testing (fluorescamine assay); format: biochemical; conditions: read-out: ENZYME (percent inhibition); for inhibition at 0.5 µg/mL: @0.5 μg/ml; for inhibition at 0.1 µg/mL: @0.1 μg/ml
Method: Compounds were tested based on a published method (Wang W., 2001, Anal Biochem, 290, 338-46) with modifications. Enzyme assays were performed in the assay buffer (50 mM HEPES, pH8, 0.005% Brij, 50 μM ZnSO4, 1 mg/ml BSA) in 96-well V-bottom microtiter plates.
Stock solutions of test compounds and control antibiotics are prepared at 10 mg/ml in DMSO and are diluted in the assay buffer to 6-fold the final testing concentration. 5 μl compound dilution is distributed to the well of the assay plate. EDTA is used as positive control and the final concentration in assay is 12.5 mM.
P. ae LpxC enzyme dilution in the assay buffer is added to the compound in plate and pre-incubated with the compound at room temperature for 10 min. LpxC substrate is added to initiate the enzyme reaction and the final enzyme and substrate concentrations are 1.2 μM and 0.4 mM, respectively. The reaction continues at RT for 4 hrs before diluted with 45 μl of Borate buffer (0.4 M, pH9), followed by addition of 40 μl derivatization reagent (fluorescamine 2 mg/ml DMF). This mixture is incubated at RT for 10 min followed by addition of 150 μl DMF/H2O (1:1). The resulting solution is loaded onto Millipore filter unit (Microcon 10 k MWCO) and spun at 13 k rpm on bench top centrifuge for 15 min. 100 μl of this filtrate is transferred to a low fluorescence clear-bottom 96-well plate (Corning) and the fluorescence is detected at ex360 nm and em465 nm on a Tecan fluorescence plate reader. The percent inhibition is calculated based on EDTA produces 100% inhibition and negative control produces 100% activity.

Sequence of P. ae LpxC enzyme (P47205 whole entry): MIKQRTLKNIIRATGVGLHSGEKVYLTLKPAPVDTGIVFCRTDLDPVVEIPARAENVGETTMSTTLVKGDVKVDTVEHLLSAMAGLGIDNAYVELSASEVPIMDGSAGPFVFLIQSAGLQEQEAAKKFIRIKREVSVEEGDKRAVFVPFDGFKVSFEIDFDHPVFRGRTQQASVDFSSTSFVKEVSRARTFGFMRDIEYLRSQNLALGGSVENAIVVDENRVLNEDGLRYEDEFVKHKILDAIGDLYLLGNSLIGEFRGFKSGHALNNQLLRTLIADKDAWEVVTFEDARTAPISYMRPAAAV

CCCc1ccc(-c2ccc(C(=O)N[C@@H](Cn3cccn3)C(=O)NO)cc2)cc1 [Compound 31]
MIC E. coli (2) (E. coli (2)): >64 | MIC E. coli tolC (E. coli tolC): 1 µg/mL (≈ 2.55 µM) | MIC P. aerug. (2) (P. aerug. (2)): >64 | MIC P. aerug. Hypersuc (P. aerug. Hypersuc): 64 µg/mL (≈ 163 µM) | MIC K. pneu. (K. pneu.): > 64 µg/mL | MIC H. influen. (H. influen.): > 64 µg/mL | inhibition at 0.5 µg/mL (P. ae LpxC enzyme): 100%

CCCc1ccc(-c2ccc(C(=O)N3C[C@@H](N)[C@H](O)[C@H]3C(=O)NO)cc2)cc1 [Compound 11, (2S,3S,4R)-4-Amino-N,3-dihydroxy-1-(4′-propylbiphenylcarbonyl)pyrrolidine-2-carboxamide]
MIC E. coli (2) (E. coli (2)): >64 | MIC E. coli tolC (E. coli tolC): 32 µg/mL (≈ 83.5 µM) | MIC P. aerug. (2) (P. aerug. (2)): 64 | MIC P. aerug. Hypersuc (P. aerug. Hypersuc): 16 µg/mL (≈ 41.7 µM) | MIC K. pneu. (K. pneu.): > 64 µg/mL | MIC H. influen. (H. influen.): 32 µg/mL (≈ 83.5 µM) | inhibition at 0.5 µg/mL (P. ae LpxC enzyme): 84%

CCCc1ccc(-c2ccc(C(=O)N3CCS[C@H]3C(=O)NO)cc2)cc1 [Compound 13]
MIC E. coli (2) (E. coli (2)): >64 | MIC E. coli tolC (E. coli tolC): > 64 µg/mL | MIC P. aerug. (2) (P. aerug. (2)): 64 | MIC P. aerug. Hypersuc (P. aerug. Hypersuc): 16 µg/mL (≈ 43.2 µM) | MIC K. pneu. (K. pneu.): 32 µg/mL (≈ 86.4 µM) | MIC H. influen. (H. influen.): 64 µg/mL (≈ 173 µM) | inhibition at 10 µg/mL (P. ae LpxC enzyme; @10 μg/ml): 71%

O=C(NO)[C@H]1N(C(=O)c2ccc(-c3ccc(C(F)(F)F)cc3)cc2)CCS1(=O)=O [Compound 38, (S)-3-(4′-(Trifluoromethyl)biphenylcarbonyl)-N-hydroxythiazolidinesulfone-2-carboxamide]
MIC E. coli (2) (E. coli (2)): >64 | MIC E. coli tolC (E. coli tolC): ≤ 0.06 µg/mL | MIC P. aerug. (2) (P. aerug. (2)): 32 | MIC P. aerug. Hypersuc (P. aerug. Hypersuc): 8 µg/mL (≈ 18.7 µM) | MIC K. pneu. (K. pneu.): > 64 µg/mL | MIC H. influen. (H. influen.): > 64 µg/mL | inhibition at 0.1 µg/mL (P. ae LpxC enzyme): 30%

O=C(NO)[C@H]1N(C(=O)c2ccc(Oc3ccccc3)cc2)CCS1(=O)=O [Compound 35, (S)-N-Hydroxy-3-(4-phenoxybenzoyl)thiazolidinesulfone-2-carboxamide]
MIC E. coli (2) (E. coli (2)): >64 | MIC E. coli tolC (E. coli tolC): 0.125 µg/mL (≈ 0.332 µM) | MIC P. aerug. (2) (P. aerug. (2)): >64 | MIC P. aerug. Hypersuc (P. aerug. Hypersuc): > 64 µg/mL | MIC K. pneu. (K. pneu.): > 64 µg/mL | MIC H. influen. (H. influen.): > 64 µg/mL | inhibition at 0.1 µg/mL (P. ae LpxC enzyme): 21%

CCCc1ccc(-c2ccc(C(=O)NC(C(=O)NO)c3cccs3)cc2)cc1 (stereo not shown) [Compound 30, N-(2-(Hydroxyamino)-2-oxo-1-(thiophen-2-yl)ethyl)-4′-propylbiphenyl-4-carboxamide]
MIC E. coli (2) (E. coli (2)): 64 | MIC E. coli tolC (E. coli tolC): 2 µg/mL (≈ 5.07 µM) | MIC P. aerug. (2) (P. aerug. (2)): >64 | MIC P. aerug. Hypersuc (P. aerug. Hypersuc): 32 µg/mL (≈ 81.1 µM) | MIC K. pneu. (K. pneu.): 8 µg/mL (≈ 20.3 µM) | MIC H. influen. (H. influen.): 16 µg/mL (≈ 40.6 µM) | inhibition at 0.5 µg/mL (P. ae LpxC enzyme): 87%

O=C(NC(C(=O)NO)C(F)(F)F)c1ccc(-c2ccc(F)cc2)cc1 (racemic) [Compound 25, DL-4′-Fluoro-N-(1,1,1-trifluoro-3-(hydroxyamino)-3-oxopropan-2-yl)biphenyl-4-carboxamide]
MIC E. coli (2) (E. coli (2)): 8 | MIC E. coli tolC (E. coli tolC): 4 µg/mL (≈ 11.2 µM) | MIC P. aerug. (2) (P. aerug. (2)): 8-16 | MIC P. aerug. Hypersuc (P. aerug. Hypersuc): 2 µg/mL (≈ 5.61 µM) | MIC K. pneu. (K. pneu.): 16 µg/mL (≈ 44.9 µM) | MIC H. influen. (H. influen.): 4 µg/mL (≈ 11.2 µM) | inhibition at 0.1 µg/mL (P. ae LpxC enzyme): 12%

CCCc1ccc(-c2ccc(C(=O)N3CSC[C@H]3C(=O)NO)cc2)cc1 [Compound 16]
MIC E. coli (2) (E. coli (2)): >64 | MIC E. coli tolC (E. coli tolC): 16 µg/mL (≈ 43.2 µM) | MIC P. aerug. (2) (P. aerug. (2)): >64 | MIC P. aerug. Hypersuc (P. aerug. Hypersuc): 16 µg/mL (≈ 43.2 µM) | MIC K. pneu. (K. pneu.): > 64 µg/mL | MIC H. influen. (H. influen.): > 64 µg/mL | inhibition at 0.5 µg/mL (P. ae LpxC enzyme): 57%

CCOc1ccc(-c2ccc(C(=O)NC(C(=O)NO)C(F)(F)F)cc2)cc1 (racemic) [Compound 22, DL-4′-Ethoxy-biphenyl-4-carboxylic acid (2,2,2-trifluoro-1-hydroxycarbamoyl-ethyl)-amide]
MIC E. coli (2) (E. coli (2)): 2 | MIC E. coli tolC (E. coli tolC): 0.25 µg/mL (≈ 0.654 µM) | MIC P. aerug. (2) (P. aerug. (2)): 16-32 | MIC P. aerug. Hypersuc (P. aerug. Hypersuc): 0.5 µg/mL (≈ 1.31 µM) | MIC K. pneu. (K. pneu.): 1 µg/mL (≈ 2.62 µM) | MIC H. influen. (H. influen.): 0.5 µg/mL (≈ 1.31 µM) | inhibition at 0.1 µg/mL (P. ae LpxC enzyme): < 10%

CCCc1ccc(-c2ccc(C(=O)NC(CF)C(=O)NO)cc2)cc1 (racemic) [Compound 21, DL-4′-Propyl-biphenyl-4-carboxylic acid (2-fluoro-1-hydroxycarbamoyl-ethyl)-amide]
MIC E. coli (2) (E. coli (2)): 16-32 | MIC E. coli tolC (E. coli tolC): 4 µg/mL (≈ 11.6 µM) | MIC P. aerug. (2) (P. aerug. (2)): >64 | MIC P. aerug. Hypersuc (P. aerug. Hypersuc): 16 µg/mL (≈ 46.5 µM) | MIC K. pneu. (K. pneu.): 8 µg/mL (≈ 23.2 µM) | MIC H. influen. (H. influen.): 8 µg/mL (≈ 23.2 µM) | inhibition at 0.5 µg/mL (P. ae LpxC enzyme): 77%

Reference: US8088804B2, “N-hydroxyamide derivatives possessing antibacterial activity” (Pfizer Inc., priority 2005, dated 2012)
